Values of other authors, collected in paper PMC11761228, “Cinnamic Acid Compounds (p-Coumaric, Ferulic, and p-Methoxycinnamic Acid) as Effective Antibacterial Agents Against Colistin-Resistant Acinetobacter baumannii” (Antibiotics, 2025).

Tested on: A. baumannii isolates
Settings: various A. baumannii isolates; ref 28 (Ibitoye and Ajiboye, 2019); cited from earlier work

Compound: COc1cc(/C=C/C(=O)O)ccc1O [FA, ferulic acid]
- Combination effect with quinolone-based antibiotics in words: synergistic effect
